Data published in PMC8151276, “An Integrated Approach toward NanoBRET Tracers for Analysis of GPCR Ligand Engagement” (Molecules, 2021).

Key:
HiBiT-GPCRs = experiment: NanoBRET saturation ligand-engagement assay in HEK293; format: binding, human
Text: Metabotropic GRM1 glutamate receptor, metabotropic 1 glutamate GRM2 glutamate receptor, metabotropic 2
GRM3 glutamate receptor, metabotropic 3
GRM4 glutamate receptor, metabotropic 4
GRM5 glutamate receptor, metabotropic 5
GRM7 glutamate receptor, metabotropic 7
GRM8 glutamate receptor, metabotropic 8
Glucagon ADCYAP1R1 adenylate cyclase activating polypeptide 1
(pituitary) receptor type I
Lutropin- LHCGR luteinizing hormone/choriogonadotropin choriogonadotropin receptor
Cysteinyl leukotriene CYSLTR1 cysteinyl leukotriene receptor 1
CYSLTR2 cysteinyl leukotriene receptor 2
Cell culture and transfection
HEK293 cells were obtained from American Type Culture Collection (ATCC) and cultured at 37 °C/5% CO2 in Dulbecco's Modified Eagle Medium (DMEM) (Gibco) supplemented with 10% fetal bovine serum (Seradigm) and 100 units/mL of penicillin-streptomycin (Gibco). Transfections were carried out using Viafect (Promega) at a 1:3 DNA/transfection reagent ratio. Generally, DNA encoding HiBiT-GPCR fusion was diluted 1:100 in promoterless carrier DNA. […]
in the presence of 30 μM competing unmodified compound for 90 min at room temperature. […] Filtered luminescence was then measured using GloMax Discover microplate reader (Promega) equipped with a 450-nm (8-nm band pass) filter (donor) and a 600-nm long pass filter (acceptor). BRET was calculated by dividing the acceptor emission by the donor emission. […]

[1] = test system: 184 HiBiT-GPCRs from 51 families; experiment: NanoBRET screen, binding profile across the HiBiT-GPCR library; design: species or system human; details: screen at 1 μM and 0.1 μM tracer
Experimental: Each tracer candidate was screened across the entire library of HiBiT-GPCR constructs using NanoBRET as the detection modality. As depicted in Figure 4A, the specificity of interactions was evaluated through decrease in BRET due to competitive displacement of a bound tracer by excess parental compound. Each tracer was analyzed for binding to each HiBiT-GPCR fusion in the absence and in the presence of competing parental compound. Briefly, HEK293 cells were transfected with HiBiT-GPCR constructs diluted into promoterless DNA to reduce expression and maximize translocation to the cell surface. Each tracer candidate was then screened at concentrations of 1 μM and 0.1 μM across cells expressing these fusions. Cells were treated for 1.5 h with tracer either alone or in the presence of 20 μM competing parental compound (i.e., control). BRET was measured upon addition of purified LgBiT and subsequent complementation with HiBiT genetically fused to a GPCR. The specificity of interactions was assessed through a decrease in BRET signal due to competitive displacement of the bound tracer. To further gauge the robustness of these interactions, the fold response over the control (i.e., BRETtracer/BRETcontrol) was calculated. We chose a 1.5-fold response, which translates to ≥7-fold signal over noise as the minimal threshold required to score an interaction as positive. […]. […]

O=C(CCOCCOCCOCCOCCNC(=O)CCc1ccc2n1[B-](F)(F)[N+]1=C(c3ccc[nH]3)C=CC1=C2)NCCCN1CCN(C2=Nc3cc(Cl)ccc3Nc3ccccc32)CC1 [Clozapine-a-2-NB590]
Concentration-dependent binding (HiBiT-GPCRs; ADRA2A and HTR1D, competing Clozapine (30 μM)): specific but suffered from high background | EC50 (HiBiT-GPCRs; range over 17 of the 19 GPCRs, background corrected with competing Clozapine (30 μM), read-out: EC50 values (concentration-dependent tracer binding)): 1 to 600 nM

CN(CCC=C1c2ccccc2CCc2ccccc21)C(=O)CCOCCOCCOCCOCCNC(=O)CCc1ccc2n1[B-](F)(F)[N+]1=C(c3ccc[nH]3)C=CC1=C2 [Amitriptyline-e-2-NB590]
Number of GPCRs with specific interactions (≥[…] response) [1]: no specific interactions
